Test [1] relates to Hs27 human fibroblast / HEK human keratinocyte co-cultures. Put plainly: Pro-collagen synthesis in fibroblast/keratinocyte co-cultures (ELISA). Type of test: cell-based. Details: key: a “+” sign indicates an increase in synthesis; ++: multiple “+” signs indicating a higher increase in synthesis; +++: multiple “+” signs indicating a higher increase in synthesis; ++++: multiple “+” signs indicating a higher increase in synthesis; a “−” sign indicates decrease in synthesis; −−: multiple “−”signs indicating a higher decrease in synthesis. Conditions: 10 mg/ml, overnight, pro-collagen in supernatant. As to the method:
Hs27, a human fibroblast cell culture and HEK, a human keratinocyte cell culture, were established in 24 well plates. The cells were exposed to various ingredients used in formulations of the present invention at concentrations of 10 mg/ml. The co-cultures were then incubated overnight. The following day, supernatants were collected. The supernatants were analyzed for the presence of pro-collagen, a soluble precursor of collagen formed by fibroblasts in the process of collagen synthesis. Pro-collagen synthesis was assayed using commercially available ELISA kits. See […], Falabella A, Ochoa S, Zhou […]. “Dermal fibroblasts from venous ulcers are unresponsive to the action of transforming growth factor-beta 1.” J Dermatol Sci. 1997. 16(1):59-66.
In general terms: In an ELISA, binding on a coated surface is turned into a signal by an enzyme label.

Test [2] shares this test system. Put plainly: Elastin synthesis in fibroblast/keratinocyte co-cultures (Fastin Elastin kit). Format: cell-based. Set-up: key: a “+” sign indicates an increase in synthesis; ++: multiple “+” signs indicating a higher increase in synthesis; +++: multiple “+” signs indicating a higher increase in synthesis; ++++: multiple “+” signs indicating a higher increase in synthesis; a “−” sign indicates decrease in synthesis; −−: multiple “−”signs indicating a higher decrease in synthesis. Conditions: 10 mg/ml, overnight, elastin in supernatant. Here is the method: Hs27, a human fibroblast cell culture and HEK, a human keratinocyte cell culture, were established in 24 well plates. The cells were exposed to various ingredients of the formulations of the present invention at concentrations of 10 mg/ml. The co-cultures were then incubated overnight. The following day supernatants were collected. The supernatants were analyzed for the presence of elastin using the Fastin Elastin® kit from Biocolor. Liao […]. 2004. “Relationship between collagen fibrils, glycosaminoglycans, and stress relaxation in mitral valve chordae […].” Ann. Biomed. Eng. 32(7):977-983.

In test [3] the target is T1, MMP-1 (Homo sapiens, UniProt P03956).
T1 construct: purchased Amersham
T1 sequence (P03956 100-469): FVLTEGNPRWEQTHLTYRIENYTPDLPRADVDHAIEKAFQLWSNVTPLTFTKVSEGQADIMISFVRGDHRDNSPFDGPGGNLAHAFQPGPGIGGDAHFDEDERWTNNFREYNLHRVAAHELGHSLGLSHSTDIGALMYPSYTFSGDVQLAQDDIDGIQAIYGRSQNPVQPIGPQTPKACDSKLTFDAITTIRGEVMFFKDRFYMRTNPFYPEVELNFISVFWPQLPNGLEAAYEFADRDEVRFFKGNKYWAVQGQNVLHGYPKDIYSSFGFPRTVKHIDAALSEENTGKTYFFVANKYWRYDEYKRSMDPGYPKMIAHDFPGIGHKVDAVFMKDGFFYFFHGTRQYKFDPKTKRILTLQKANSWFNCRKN
The experiment in a line: MMP-1 enzyme activity (Amersham kit). Type of test: biochemical. Set-up: key: a “+” sign indicates an increase in synthesis; ++: multiple “+” signs indicating a higher increase in synthesis; +++: multiple “+” signs indicating a higher increase in synthesis; ++++: multiple “+” signs indicating a higher increase in synthesis; a “−” sign indicates decrease in synthesis; −−: multiple “−”signs indicating a higher decrease in synthesis. Conditions: samples diluted to 100 μg/ml. The source says: (§1) Commercially available kits were used for testing the effect of various ingredients used in the formulations of the present invention on the activity of the MMP-1, MMP-9, and elastase. Gould L J, Yager D R, McGeehan G M, Diegelmann R F. 1999. “Method to analyze collagenase and gelatinase activity by fibroblasts in culture.” In Vitro Cell. Dev. Biol. Anim. 35(2):75-79. For MMP-1, a kit from Amersham® was used according to the manufacturer's specifications. For MMP-9 and Elastase, kits from Molecular Probes® were used. The samples were prepared in stock solvent at stock concentrations of 100 mg/ml. The samples were diluted to 100 μg/ml using PBS.

The test system of test [4] is MMP-9. Put plainly: MMP-9 enzyme activity (Molecular Probes kit). Format: biochemical. Set-up: key: a “+” sign indicates an increase in synthesis; ++: multiple “+” signs indicating a higher increase in synthesis; +++: multiple “+” signs indicating a higher increase in synthesis; ++++: multiple “+” signs indicating a higher increase in synthesis; a “−” sign indicates decrease in synthesis; −−: multiple “−”signs indicating a higher decrease in synthesis. Conditions: samples diluted to 100 μg/ml.
Description: as §1

In test [5] the target is T2, Elastase (Sus scrofa, UniProt P00772).
T2 construct: purchased Molecular Probes
Put plainly: Elastase enzyme activity (Molecular Probes kit). Details: key: a “+” sign indicates an increase in synthesis; ++: multiple “+” signs indicating a higher increase in synthesis; +++: multiple “+” signs indicating a higher increase in synthesis; ++++: multiple “+” signs indicating a higher increase in synthesis; a “−” sign indicates decrease in synthesis; −−: multiple “−”signs indicating a higher decrease in synthesis. Conditions: samples diluted to 100 μg/ml. Type of test: biochemical.
Description: as §1

Test [6] deals with Human HEK001 cells. The experiment in a line: Lipid synthesis, Oil Red O staining. Type of test: cell-based. Details: key to Lipids: a “+” sign indicates an increase in synthesis; ++: multiple “+” signs indicating a higher increase in synthesis; +++: multiple “+” signs indicating a higher increase in synthesis; ++++: multiple “+” signs indicating a higher increase in synthesis; a “−” sign indicates decrease in synthesis; −−: multiple “−”signs indicating a higher decrease in synthesis. Conditions: 0.005%, overnight; for Lipids: 0.05%, and 0.5% in media, Oil Red O OD 515 nm. Here is the method:
Human HEK001 cells were plated at 2×10^4/well in 96 well plates and were incubated overnight. The following day, the cells were exposed to: glycine, Cherokee rose hips, grape seed extract, Wolfberry extract, Pickled Ume, Ascorbic acid, Chinese Angelica extract, royal jelly, and α-tocopherol, which were diluted into cell culture media at concentrations of 0.005%, 0.05%, and 0.5%. The cells were then again incubated overnight. The following day, the cells were fixed in 1% formaldehyde. Cellular lipids were then stained with Oil Red O® stain. See Ramirez J L, Castro-Munnozledo F, Kuri-Harusch W. 1992. “Quantitation of adipose conversion and triglycerides by staining intracytoplasmic lipids with Oil Red O.” Histochemistry. 97:493-497. Following staining, the lipid bound stain was extracted with isopropanol. The OD of the extracted stain was read at 515 nm.

The conditions of test [7]: daily consumption of tomato paste over ten weeks; cited from earlier work.
The subject of test [8] is mouse keratinocytes. Conditions: mouse keratinocytes in vitro; cited from earlier work.
Test [9] concerns humans. Conditions: supplementation with high doses; cited from earlier work.

T2 sequence (P00772 27-266): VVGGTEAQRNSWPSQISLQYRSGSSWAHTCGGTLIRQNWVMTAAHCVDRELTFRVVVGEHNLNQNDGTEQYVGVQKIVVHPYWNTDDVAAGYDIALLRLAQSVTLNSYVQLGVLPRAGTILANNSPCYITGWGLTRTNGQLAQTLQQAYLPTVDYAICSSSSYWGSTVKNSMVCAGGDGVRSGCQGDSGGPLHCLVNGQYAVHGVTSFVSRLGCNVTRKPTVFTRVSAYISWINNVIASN

Take `Cc1c(C)c2c(c(C)c1O)CC[C@@](C)(CCC[C@H](C)CCC[C@H](C)CCCC(C)C)O2` [α-tocopherol]: in test [1], the Collagen result is recorded as “−”. In addition, in [2], the Elastin entry was “−”. Besides, in [3], the MMP-1 result is reported as “−”. Further, in test [4], the MMP-9 result is reported as “−”. Besides, the Elastase entry in test [5] is recorded as “−”. In addition, the Lipids result in test [6] is “+”. Besides, in [6] (0.05%, and 0.5%, Oil Red O), the “induction of lipid synthesis” value is reported as “demonstrated the ability to induce lipid synthesis”.
Consider `CC(C)=CCC/C(C)=C/C=C/C(C)=C/C=C/C(C)=C/C=C/C=C(C)/C=C/C=C(C)/C=C/C=C(\C)CCC=C(C)C` [Lycopene], for which, in [7], the “protection against erythema formation following UV-irradiation” value is “a period of ten weeks provides protection against erythema formation”.
For `O=C1O[C@H]([C@@H](O)CO)C(O)=C1O` [Ascorbic acid], in [1], the Collagen entry is “++++”. Also, the Elastin entry in test [2] is “+”. For the same molecule, the Lipids result in test [6] is “−”. Further, the UVB-induced oxidative damage entry in [8] was “shown to reduce UVB-induced oxidative damage in mouse”.
As for `CC1=C(/C=C/C(C)=C/C=C/C(C)=C/C=C/C=C(C)/C=C/C=C(C)/C=C/C2=C(C)CCCC2(C)C)C(C)(C)CCC1` [beta-carotene], in test [9], the “protection against UV-induced erythema” value is “with high doses of beta-carotene protects against UV-induced”.
Regarding `NCC(=O)O` [Glycine], in [1], the Collagen result is “+”. Also, the Elastin result in [2] was “−”. The Lipids entry in test [6] was “−”.
